Measured values: patent US20260139245A1, “METHODS AND USES OF RIBONUCLEASE INHIBITORS” (Sequrna AB, priority 2022, published 2026)
Values joined by “and” are separate entries in the source; they are usually repeats but may differ in a detail not shown here. Equal values may be shown once.

Test system: RNase
Assay: Smart-seq2 (SS2) cDNA library generation and sequencing from 100 pg mouse RNA with the agent replacing recombinant RNase inhibitor in lysis buffer
Format: biochemical
Conditions: for sustained RNA stability during cDNA library generation: SS2 protocol for bulk RNA; for quality of the sequencing data compared with standard Smart-seq2 utilizing recombinant RNAse inhibitor (TaKaRa): agent used in its optimal range; for optimal range of alternative inhibitor (cDNA size distribution and yield similar to standard Smart-seq2): concentration in 1× Smart-seq2 lysis buffer, 100 pg mouse RNA
Description: We started by systematically testing ranges of PVSA concentrations in the scRNAseq protocol Smart-seq2 (SS2) (5), which provides full-length read coverage across transcripts, enabling evaluation of polymerase processivity. We prepared lysis buffer containing 0-600 μg/mL of PVSA (resulting in 0-270 μg/mL in the following first-strand reaction) and 100 pg spiked mouse RNA, performed SS2 library amplification, and evaluated resulting cDNA by capillary electrophoresis (Methods).
To examine the information yield and quality of PVSA-generated RNA-seq libraries, we sequenced SS2 libraries generated in presence of PVSA or RI (TaKaRa) and downsampled the resulting reads to allow even comparison (Methods). We analyzed library quality metrics in terms of genomic and transcriptomic mappability, base substitution rates, insertion and deletions (indels), likelihood of mismatches within the read, and average indel length.
Bulk RNA was extracted from cultured mouse tail tip fibroblasts using TRIzol (Invitrogen). For all bulk RNAseq experiments 100 pg of RNA was used as input, if is not otherwise specified, and was added to 96-well plates containing either Smart-seq2 or Smart-seq3 standard lysis buffer or lysis buffer with varying concentrations of polyvinyl sulfonic acid (Merck, cat no. 278424). Smart-seq2 lysis buffer composition was 0.1% Triton X-100, 2.5 mM dNTP/each, […] oligo-dT (5′-[…]30VN-3′), and 4 U recombinant inhibitor (TaKaRa) or PVSA of the concentration specified for each condition; total buffer volume 4.5 ul. Smart-seq3 lysis buffer composition was 0.1% Triton X-100, 10% PEG 8000, 1 mM dNTP/each, and 1 uM Smart-seq3 oligo-dT (5′-biotin-[…] T30VN-3′), and 1 U recombinant inhibitor (TaKaRa) or PVSA of the concentration specified for each condition; total buffer volume 2 ul. For single-cell experiments, cultured HEK293FT, spleen, or liver cells in 0.5% BSA in PBS were sorted into 96 well plates containing lysis buffer using an SH800S (Sony). Single cell sorted plates were briefly centrifuged and kept at −80° C. until they were further processed. Plates containing lysis buffer and input material were then processed according to the Smart seq2 and Smart-seq3 protocols (Picelli, S. et al., 2014 and Hagemann-Jensen, M. et al., 2020), except without addition of recombinant inhibitor in the first-strand reaction mix in reactions where PVSA was used. Smart-seq2 cDNA library generation: Cell were lysed at 72° C. for 3 min in a Bioer Life ECO thermocycler and placed on ice prior to first-strand synthesis. The following reverse transcriptase reaction contained 1× Superscript II buffer, 5 mM DTT, 1M betaine, 10 mM MgCl2, 1 uM Smart-seq2 TSO (5′-[…]rGrG+G-3′), 10 U Superscript II, and 10 U recombinant inhibitor (TaKaRa) for samples containing biological inhibitor; total reaction volume 10 ul. RT thermocycles were 42° C. for 90 min, followed by 10 cycles of 42° C. for 2 min and 50° C. for 2 min. The following cDNA amplification reaction contained 1× KAPA HiFi HotStart Ready Mix and 80 nM ISPCR primers (5′-[…]-3′); total reaction volume 25 ul. Thermocycles for Smart-seq2 cDNA amplification were 98° C. for 3 min, followed by either 18 (bulk), 20 (HEK), 21 (liver) or 22 (spleen) cycles of 98° C. for 20 sec, 67° C. for 15 sec, and 72° C. for 6 min, followed by a final incubation at 72° C. for 5 min. Smart-seq3 cDNA library generation: Cell were lysed at 72° C. for 10 min and placed on ice prior to first-strand synthesis.

Row | Molecule | sustained RNA stability during cDNA library generation | quality of the sequencing data compared with standard Smart-seq2 utilizing recombinant RNAse inhibitor (TaKaRa) | optimal range of alternative inhibitor (cDNA size distribution and yield similar to standard Smart-seq2) | optimal concentration of alternative inhibitor (Smart-seq2 lysis buffer, 100 pg mouse fibroblast RNA) [mg/mL]
1 | C=CP(=O)(O)O [VPA, vinylphosphonic acid, reference compound] | did not sustain RNA stability during cDNA library generation | – | – | –
2 | Dextran sulfate | did | on par | 1 to 2.5 µg/mL and 1.5 to 2.5 µg/mL | –
3 | Sodium alginate | did | on par | 200 to 400 µg/mL and 100 to 400 µg/mL | –
4 | C=CS(=O)(=O)O [VSA, Vinylsulfonic acid] | did | on par | 500 to 2000 µg/mL | –
5 | Fucoidan | – | on par | 5 to 20 µg/mL | –
6 | Heparin [reference compound] | did | on par | 2 to 10 µg/mL | –
7 | O=S(=O)(O)CCN1CCOCC1 [MES, 2-(N-morpholino)ethanesulfonic acid] | did | on par | 4000 to 12000 µg/mL | 6 to 8
